Assay results as given in the OPERA property sets (Mansouri et al. 2018).
Converted amounts (≈) assume the structure as drawn.

With `CCNCNC(=O)c1ccccc1` the solubility (25 °C) was 842 mM (≈ 150 mg/mL).
Compound `Cc1snnc1C(=O)O` has a solubility (20 °C) of 347 mM (≈ 50 mg/mL).
In the case of `N#CCCN(CCC#N)[C@@H](CCC(=O)O)C(=O)O`, the solubility (26 °C) is reported as 592 mM (≈ 150 mg/mL).
`O=P(Oc1ccccc1)(Oc1ccccc1)N1CCOCC1` showed a solubility (25 °C) of 7.2 mM (≈ 2.3 mg/mL).
In the case of `N#Cc1c(O)cc(Cl)[nH]c1=O`, the solubility (20 °C) is reported as 58.6 mM (≈ 10 mg/mL).
`CCC(CC)COC(=O)NS(N)(=O)=O` gave a solubility (25 °C) of 17.8 mM (≈ 4 mg/mL).
In the case of `O=C(O)C(Cl)(Cl)CCCl`, the solubility is reported as 261 mM (≈ 50 mg/mL).
Compound `O=C(O)C1=CCCc2ccccc21` has a solubility of 1.61 mM (≈ 0.28 mg/mL).
In the case of `COC(=O)CNC(=O)c1ccccc1`, the solubility (30 °C) is reported as 88 mM (≈ 17 mg/mL).
Work on `C[C@@H](N)[C@@H](O)c1ccccc1` yielded a solubility (25 °C) of 132 mM (≈ 20 mg/mL).
`CC(S(C)(=O)=O)S(C)(=O)=O` gave a solubility of 38.1 mM (≈ 7.1 mg/mL).
For `NC(=S)NNC(N)=S`, the solubility (23 °C) was 16 mM (≈ 2.4 mg/mL).
Work on `Cc1cccc(I)c1O` yielded a solubility (25 °C) of 14.5 mM (≈ 3.4 mg/mL).
Compound `COc1ccc(NC(=N)Nc2ccc(OC)cc2)cc1` has a solubility of 1.84 mM (≈ 0.5 mg/mL).
With `COC[C@@H](N)C(=O)O` (racemic) the solubility (20 °C) was 4490 mM (≈ 535 mg/mL).
With `CC(C)=NNC(N)=O` the solubility (20 °C) was 540 mM (≈ 62.2 mg/mL).
In the case of `CCN(CC)C(=O)N(CC)CC`, the solubility is reported as 232 mM (≈ 40 mg/mL).
Compound `O=S(=O)(O)c1ncc[nH]1` has a solubility of 844 mM (≈ 125 mg/mL).
`CCCCOC(=O)CCC(=O)OCCCC` showed a solubility of 0.999 mM (≈ 0.23 mg/mL).
With `CC(C)(CCC(C)(C)CC(=O)O)CC(=O)O` the solubility (25 °C) was 0.738 mM (≈ 0.17 mg/mL).
`CCSC(C(=O)O)c1ccccc1` (stereo not given) gave a solubility (25 °C) of 27 mM (≈ 5.3 mg/mL).
For `COC(C)C(NC=O)C(=O)O` (racemic), the solubility (25 °C) was 242 mM (≈ 39 mg/mL).
Work on `CCCCCCCCS(=O)(=O)NS(=O)(=O)CCCCCCCC` yielded a solubility (30 °C) of 0.122 mM (≈ 0.045 mg/mL).
`CC(CC(C)C(=O)O)C(=O)O` (stereo not given) showed a solubility (25 °C) of 350 mM (≈ 56 mg/mL).
Compound `O=C1CC(c2ccccc2)CC(=O)C1[N+](=O)[O-]` (stereo not given) has a solubility (20 °C) of 21.4 mM (≈ 5 mg/mL).
`CCC(CC)COC(C)=O` gave a solubility (20 °C) of 44.4 mM (≈ 6.4 mg/mL).
`OCC1=C[C@@H](O)[C@@H]2C=CO[C@@H](OC3OC(CO)C(O)C(O)C3O)[C@H]12` (stereo not given in full) gave a solubility (20 °C) of 1030 mM (≈ 356 mg/mL).
For `CC(C)(O)CC(C)(O)c1cccc2ccccc12` (stereo not given), the solubility (20 °C) was 0.573 mM (≈ 0.14 mg/mL).
Work on `O=C(O)C1(O)CCCCC1` yielded a solubility of 465 mM (≈ 67 mg/mL).
`Cn1c(=O)ncc2nccnc21` showed a solubility (20 °C) of 42.5 mM (≈ 6.9 mg/mL).
With `O=C(O)Cc1ccccc1C(=O)O` the solubility (20 °C) was 88.8 mM (≈ 16 mg/mL).
In the case of `NNC(=O)[C@H](O)[C@@H](O)[C@H](O)[C@H](O)CO`, the solubility is reported as 317 mM (≈ 66.7 mg/mL).
Compound `C=CC(O)C(=O)OCC` (stereo not given) has a solubility of 2310 mM (≈ 300 mg/mL).
Compound `O=C1CNC(=O)C(Cc2ccc(O)cc2)N1` (stereo not given) has a solubility of 90.8 mM (≈ 20 mg/mL).
Work on `Nc1ccc(C#Cc2ccc(N)cc2)cc1` yielded a solubility of 3.69 mM (≈ 0.769 mg/mL).
`CNC(CC(=O)O)C(=O)O` (stereo in doubt) gave a solubility (21 °C) of 176 mM (≈ 25.9 mg/mL).
In the case of `CC(C)C=CCC(=O)O`, the solubility is reported as 71 mM (≈ 9.1 mg/mL).
For `O=C1C(=O)c2ccccc2-c2ccccc21`, the solubility (25 °C) was 0.036 mM (≈ 0.0075 mg/mL).
`Nc1c(S(=O)(=O)O)cc(S(=O)(=O)O)c2ccc(S(=O)(=O)O)cc12` showed a solubility (20 °C) of 480 mM (≈ 184 mg/mL).
Compound `CC(=O)c1ccc(O)c(C(=O)O)c1` has a solubility of 5.88 mM (≈ 1.06 mg/mL).
